Experimental data reported in patent publication US20250361240A1, “PYRANOPYRIDINE COMPOUND, PROCESS FOR PREPARING THE SAME, PHARMACEUTICAL COMPOSITION AND USE THEREOF” (Zhejiang Yangli Pharmaceutical Technology Co., Ltd., priority 2024, published 2025).
Read-outs that look alike come from different tables or passages of the source.

What was measured:
human CYP11B2 = human CYP11B2 (Homo sapiens (Human), UniProt P19099); test: Inhibitory activity against hCYP11B2 in G-402 CYP11B2 high expression stable transformants (aldosterone HTRF); assay type: cell-based; settings: for IC50: G-402 CYP11B2 cells, 0.2 μM 11-deoxycorticosterone, 16 hours, read-out: hCYP11B2 (AS) Abs IC50; for hCYP11B ½ Selectivity Fold: hCYP11B1 IC50 relative to hCYP11B2 IC50
Method: (§1) 1. Experimental System: G-402 CYP11B2 or CYP11B1 High Expression Stable Transformants
(§2) The above-mentioned high-expression stable transformants were constructed based on human […] cell line G-402. The artificial lentiviruses were introduced into human CYP11B2 (NM_000498.3) and CYP11B1 (NM_000497.4), respectively.
(§3) Maintenance medium: McCoy's 5A (modified, #16600082, GIBCO)+10% FBS (GIBCO)+1 μg/mL puromycin (A1113803, GIBCO).
(§4) Resuscitation and seeding medium: McCoy's 5A (modified, #16600082, GIBCO)+10% FBS (GIBCO).
(§5) Reaction medium: DMEM/F12 (#11320033, GIBCO)+2.5% activated charcoal filtered FBS (S11695, R & D).
(§6) Seeding: Cells were cultured to a suitable state after resuscitation with maintenance medium, and 96-well flat plates were seeded with seeding medium according to 1×10^4/100 μL/well (unified cell volume).
(§7) Changing solution: The supernatant was aspirated and discarded after seeding overnight (>12 hours) and adherence. 100-150 μL/well serum-free medium was added, and after being aspirated. After aspiration, 50 μL/well reaction medium was added for later use.
(§8) Formulation: Compound was diluted with reaction medium containing 0.4 μM substrate (final experimental concentration is 0.2 μM):
CYP11B2 substrate: 11-deoxycorticosterone (11-deoxycorticosterone, S4243, selleckchem). The final reaction concentration was 0.2 μM
(§9) Loading: The above compound dilutions were added to the cell plates at 50 μL/well. The background and control wells were set.
(§10) Treating and sampling: The cell plates were incubated in a cell incubator for 16 hours after loading, and then each cell plate was centrifuged at 450 g for 2 min. 75 μL supernatant was transferred to a collection plate and frozen at −80° C. for future use (or direct detection).
(§11) Detection: Homogeneous time-resolved fluorescence kit (Cisbio HTRF kit, Cat.64ALDPEG, Cat.62CRTPEG) was used to determine the concentration of aldosterone or cortisol in the supernatant.
(§12) Analysis: The absolute IC50 (Abs IC50) for each compound was calculated using a four parameter fit.

human CYP11B1 = human CYP11B1 (Homo sapiens (Human), UniProt P15538); test: Inhibitory activity against hCYP11B1 in G-402 CYP11B1 high expression stable transformants (cortisol HTRF); assay type: cell-based; settings: G-402 CYP11B1 cells, 0.2 μM 11-deoxycortisol, 16 hours; read-out: hCYP11B1 Abs IC50
Method: as §1, §2, §3, §4, §5, §6, §7, §8
CYP11B1 substrate: 11-deoxycortisol (11-deoxycortisol, S4775, selleckchem). The final reaction concentration was 0.2 μM.
as §9, §10, §11, §12

CYP1A2 = CYP1A2 (Homo sapiens (Human), UniProt P05177); test: In vitro inhibitory activity against common CYP450 enzymes: CYP1A2; assay type: in vitro ADME; settings: human, microsomes, 10 min
Method: (§13) A working solution of the test compound was prepared in a solvent of dimethyl sulfoxide (DMSO) (starting at a final concentration of 50 μM, 3-fold dilution of 7 concentration points). The corresponding microsomes (CORNING, Cat No.452117) and the corresponding substrate solution were prepared (components were shown in Table 2). The working solution of the test compound and the corresponding microsomes were mixed with the corresponding substrate solution and the HLM working solution. The mixture was preheated in a 37.0° C. water bath for 10 min. NADPH cofactor (BONTAC, Cat No.BT04) was added. The resultant mixture was incubated for 10 min in a 37.0° C. water bath. The reaction was terminated by adding cold stop solution. [table] [table] The sample was centrifuged at 4000 rpm for 20 min to precipitate protein and the supernatant was transferred to HPLC water and shaken for 10 min.

CYP2C9 = CYP2C9 (Homo sapiens (Human), UniProt P11712); test: In vitro inhibitory activity against common CYP450 enzymes: CYP2C9; assay type: in vitro ADME; settings: microsomes, substrate Diclofenac
Method: as §13

CYP2C19 = CYP2C19 (Homo sapiens (Human), UniProt P33261); test: In vitro inhibitory activity against common CYP450 enzymes: CYP2C19; assay type: in vitro ADME; settings: microsomes, substrate (S)-(+)-Mephenytoin
Method: as §13

CYP2D6 = CYP2D6 (Homo sapiens (Human), UniProt P10635); test: In vitro inhibitory activity against common CYP450 enzymes: CYP2D6; assay type: in vitro ADME; settings: microsomes, substrate Dextromethorphan
Method: as §13

CYP3A-M = CYP3A-M (Homo sapiens, UniProt P08684); test: In vitro inhibitory activity against common CYP450 enzymes: CYP3A (midazolam); assay type: in vitro ADME; settings: microsomes, substrate Midazolam
Method: as §13

aldosterone synthesis = test: Pharmacodynamic test in cynomolgus monkeys with ACTH stimulation: aldosterone in plasma; assay type: in vivo, cynomolgus monkeys (Macaca fascicularis)
Description: (§14) Adult cynomolgus monkeys (Macaca fascicularis) with suitable body weight and age were selected. 1 male and 1 female cynomolgus monkeys were used for experiment. The adaptation period was 1 week. On the day of the experiment, monkeys were individually housed in stainless steel mesh cages for testing.
(§15) Oral treatment and ACTH working solution (working solution diluted to the desired concentration in PBS sterile solution by ultrapure water filtration through a 0.22 μm filter using Tetracosactrin (HY-P0060, MCE)) were administered as follows: • T=0, 2 monkeys in each group were orally administered 0.5 mg/kg (compound was suspended in 5% aqueous sodium hydroxymethylcellulose solution as vehicle) in a fixed volume of 2 mL/kg; • T=+1 hour (i.e., 1 hour after administration), 14.5 μg/kg of the aforementioned ACTH working solution was injected intramuscularly.
(§16) Sampling test: Blood samples (collected in EDTA anticoagulant tubes) were collected before oral administration (Pre-dose) and 0.5 h, 1 h, 2 h, 4 h, 6 h and 12 h after administration for cortisol concentration measurement in plasma. The blood was centrifuged at 10000 rpm for 15 minutes at 4° C., followed by separation of the plasma and uniform storage at −80° C. for further analysis using an Roche biochemical analyzer to detect aldosterone and cortisol in plasma, and a portion of the plasma (0.5 h, 1 h, 2 h, 4 h, 6 h, and 12 h after administration, and an additional blood collection after 24 h) was taken simultaneously to determine the pharmacokinetic parameters by LC/MS.
(§17) The above experiment was repeated except that: T=0, two monkeys in each group were orally administered at a dose of 0.05 mg/kg (compound was suspended in 5% aqueous sodium hydroxymethylcellulose as vehicle) in a fixed volume of 2 mL/kg.

cortisol levels = test: Pharmacodynamic test in cynomolgus monkeys with ACTH stimulation: cortisol in plasma; assay type: in vivo, cynomolgus monkeys (Macaca fascicularis)
Description: as §14, §15, §16, §17

[1] = Pharmacokinetic test in cynomolgus monkeys (LC/MS); assay type: in vivo, cynomolgus monkeys (Macaca fascicularis); settings: for Cmax / Tmax / half-life / AUC(0-t): both sexes, cynomolgus monkey, plasma; for AUC(0-t): read-out: AUC0-24 h
Description: as §14, §15, §16, §17

CYP3A = CYP3A (Homo sapiens, UniProt P08684); test: In vitro inhibitory activity against common CYP450 enzymes: CYP3A (midazolam); assay type: in vitro ADME; settings: human, human liver microsomes, probe Midazolam, substrate Midazolam
Method: as §13

[2] = 0.5 mg/kg oral, 1 h (ACTH at +1 hour)
[3] = 0.05 mg/kg oral, 1 h (ACTH at +1 hour)

Sequence of human CYP11B2 (P19099 25-503): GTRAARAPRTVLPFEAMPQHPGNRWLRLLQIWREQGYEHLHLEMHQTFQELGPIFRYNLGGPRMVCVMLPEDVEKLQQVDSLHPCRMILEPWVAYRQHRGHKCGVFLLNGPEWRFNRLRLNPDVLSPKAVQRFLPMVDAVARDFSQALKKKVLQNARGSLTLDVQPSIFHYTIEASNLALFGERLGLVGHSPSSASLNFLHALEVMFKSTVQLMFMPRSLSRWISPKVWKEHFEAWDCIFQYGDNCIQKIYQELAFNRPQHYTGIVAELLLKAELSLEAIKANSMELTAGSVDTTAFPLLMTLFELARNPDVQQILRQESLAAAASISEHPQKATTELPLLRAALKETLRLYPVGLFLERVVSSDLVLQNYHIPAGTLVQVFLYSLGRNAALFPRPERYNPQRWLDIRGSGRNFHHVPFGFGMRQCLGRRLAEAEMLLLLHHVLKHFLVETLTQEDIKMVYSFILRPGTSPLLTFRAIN
Sequence of CYP1A2 (P05177 whole entry): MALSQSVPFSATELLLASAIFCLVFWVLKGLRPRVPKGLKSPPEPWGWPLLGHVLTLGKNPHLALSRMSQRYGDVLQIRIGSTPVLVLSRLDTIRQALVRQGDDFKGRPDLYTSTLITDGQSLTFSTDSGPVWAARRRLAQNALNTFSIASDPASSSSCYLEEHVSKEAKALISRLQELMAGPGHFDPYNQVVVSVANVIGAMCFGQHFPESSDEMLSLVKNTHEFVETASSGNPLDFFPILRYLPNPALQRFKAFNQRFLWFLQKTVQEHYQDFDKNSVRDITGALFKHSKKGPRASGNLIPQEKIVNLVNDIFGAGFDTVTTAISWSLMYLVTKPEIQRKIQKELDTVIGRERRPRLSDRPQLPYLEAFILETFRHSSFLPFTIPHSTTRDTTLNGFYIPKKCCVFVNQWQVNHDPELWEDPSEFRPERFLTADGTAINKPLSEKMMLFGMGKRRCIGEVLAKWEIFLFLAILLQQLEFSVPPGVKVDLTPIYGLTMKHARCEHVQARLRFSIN
Sequence of CYP2C19 (P33261 whole entry): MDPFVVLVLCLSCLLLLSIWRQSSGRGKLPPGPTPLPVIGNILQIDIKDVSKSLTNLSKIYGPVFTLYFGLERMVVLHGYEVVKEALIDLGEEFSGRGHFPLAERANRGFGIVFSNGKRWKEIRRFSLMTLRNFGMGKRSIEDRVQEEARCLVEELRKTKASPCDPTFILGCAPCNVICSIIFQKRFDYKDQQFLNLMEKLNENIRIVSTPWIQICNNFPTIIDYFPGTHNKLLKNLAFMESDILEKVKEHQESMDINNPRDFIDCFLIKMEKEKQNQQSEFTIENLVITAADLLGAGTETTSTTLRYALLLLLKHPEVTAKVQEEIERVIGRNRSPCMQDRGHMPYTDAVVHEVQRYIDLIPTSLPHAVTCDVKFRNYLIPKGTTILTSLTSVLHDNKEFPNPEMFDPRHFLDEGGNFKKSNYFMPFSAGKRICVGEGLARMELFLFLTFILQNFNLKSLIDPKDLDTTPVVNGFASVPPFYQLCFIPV
Sequence of CYP2C9 (P11712 whole entry): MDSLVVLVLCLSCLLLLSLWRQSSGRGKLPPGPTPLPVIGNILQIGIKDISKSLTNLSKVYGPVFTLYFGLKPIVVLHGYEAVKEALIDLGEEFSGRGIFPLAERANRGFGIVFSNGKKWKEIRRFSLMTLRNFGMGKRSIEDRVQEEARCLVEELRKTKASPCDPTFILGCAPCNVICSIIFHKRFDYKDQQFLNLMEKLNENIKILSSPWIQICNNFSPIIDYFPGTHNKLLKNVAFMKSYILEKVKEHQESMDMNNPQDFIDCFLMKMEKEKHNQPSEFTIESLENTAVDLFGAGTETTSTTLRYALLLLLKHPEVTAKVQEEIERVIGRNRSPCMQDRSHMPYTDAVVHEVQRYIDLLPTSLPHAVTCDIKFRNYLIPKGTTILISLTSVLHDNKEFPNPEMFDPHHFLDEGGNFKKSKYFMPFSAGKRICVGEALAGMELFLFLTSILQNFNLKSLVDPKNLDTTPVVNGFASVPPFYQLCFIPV
Sequence of human CYP11B1 (P15538 25-503): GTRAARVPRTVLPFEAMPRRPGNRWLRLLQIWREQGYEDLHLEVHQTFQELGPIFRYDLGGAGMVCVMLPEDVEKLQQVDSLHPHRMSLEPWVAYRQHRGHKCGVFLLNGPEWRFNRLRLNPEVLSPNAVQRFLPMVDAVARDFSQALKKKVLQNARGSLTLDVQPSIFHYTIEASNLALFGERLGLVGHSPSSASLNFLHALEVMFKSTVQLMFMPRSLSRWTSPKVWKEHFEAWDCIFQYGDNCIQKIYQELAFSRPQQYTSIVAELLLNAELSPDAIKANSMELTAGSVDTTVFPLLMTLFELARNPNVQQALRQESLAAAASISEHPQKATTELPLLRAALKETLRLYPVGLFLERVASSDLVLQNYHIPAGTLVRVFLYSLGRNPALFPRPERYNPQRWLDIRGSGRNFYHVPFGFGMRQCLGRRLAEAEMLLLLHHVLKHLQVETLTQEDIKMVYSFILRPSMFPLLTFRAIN
Sequence of CYP2D6 (P10635 whole entry): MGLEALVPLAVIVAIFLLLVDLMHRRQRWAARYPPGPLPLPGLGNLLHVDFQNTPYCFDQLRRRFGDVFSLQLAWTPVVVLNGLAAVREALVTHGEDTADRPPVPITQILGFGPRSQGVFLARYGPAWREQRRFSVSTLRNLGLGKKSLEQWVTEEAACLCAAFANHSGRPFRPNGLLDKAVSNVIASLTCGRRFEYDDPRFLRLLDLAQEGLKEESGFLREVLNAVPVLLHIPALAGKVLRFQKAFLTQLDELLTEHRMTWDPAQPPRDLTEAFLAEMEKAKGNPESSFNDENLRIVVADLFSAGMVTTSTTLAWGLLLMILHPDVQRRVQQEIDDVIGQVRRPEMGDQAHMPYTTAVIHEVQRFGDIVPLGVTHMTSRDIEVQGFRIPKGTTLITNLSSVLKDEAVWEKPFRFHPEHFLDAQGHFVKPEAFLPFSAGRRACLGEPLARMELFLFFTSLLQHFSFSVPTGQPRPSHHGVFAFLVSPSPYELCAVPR
Sequence of CYP3A (P08684 2-503 limits assumed): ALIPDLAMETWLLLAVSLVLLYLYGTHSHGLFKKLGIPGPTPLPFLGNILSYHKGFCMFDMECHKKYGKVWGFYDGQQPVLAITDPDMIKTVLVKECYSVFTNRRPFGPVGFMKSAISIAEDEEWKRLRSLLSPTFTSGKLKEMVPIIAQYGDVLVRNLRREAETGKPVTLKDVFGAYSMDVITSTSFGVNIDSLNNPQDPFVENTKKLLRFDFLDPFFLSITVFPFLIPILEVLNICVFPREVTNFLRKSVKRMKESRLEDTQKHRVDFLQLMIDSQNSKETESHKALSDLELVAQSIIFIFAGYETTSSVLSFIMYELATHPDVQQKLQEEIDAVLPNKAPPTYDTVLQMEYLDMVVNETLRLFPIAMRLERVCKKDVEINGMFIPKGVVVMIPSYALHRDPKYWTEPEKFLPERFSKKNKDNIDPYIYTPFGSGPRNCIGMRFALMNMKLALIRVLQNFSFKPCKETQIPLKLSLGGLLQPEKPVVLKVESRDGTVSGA
Sequence of CYP3A-M (P08684 2-503 limits assumed): as above

CCC(=O)N[C@@H]1CCOc2c(-c3ccc4c(c3)CCC(=O)N4C)cncc21 [Example 1, (R)-N-(8-(1-methyl-2-oxo-1,2,3,4-tetrahydroquinolin-6-yl)-3,4-dihydro-2H-pyran[3,2-c]pyridin-4-yl)propanamide]
IC50 (human CYP11B2): 26.4 nM
hCYP11B ½ Selectivity Fold (human CYP11B2): 159.64 Fold
IC50 (human CYP11B1): 4.21 µM
IC50 (CYP1A2): > 50 µM
IC50 (CYP2C9): > 50 µM
IC50 (CYP2C19): > 50 µM
IC50 (CYP2D6): > 50 µM
IC50 (CYP3A-M): > 50 µM
Aldosterone Concentration in Plasma (aldosterone synthesis; 0.5 mg/kg oral, 0.5 h): 859.25 pg/mL
Aldosterone Concentration in Plasma (aldosterone synthesis; [2]): 358.37 pg/mL
Aldosterone Concentration in Plasma (aldosterone synthesis; 0.5 mg/kg oral, 2 h): 122.85 pg/mL
Aldosterone Concentration in Plasma (aldosterone synthesis; 0.5 mg/kg oral, 4 h): 90.51 pg/mL
Aldosterone Concentration in Plasma (aldosterone synthesis; 0.5 mg/kg oral, 6 h): 90.39 pg/mL
Aldosterone Concentration in Plasma (aldosterone synthesis; 0.5 mg/kg oral, 12 h): 89.42 pg/mL
Aldosterone Concentration in Plasma (aldosterone synthesis; 0.5 mg/kg oral, Pre-dose): 222.84 pg/mL
Cortisol Concentration in Plasma (cortisol levels; 0.5 mg/kg oral, 0.5 h): 1000.0 pg/mL
Cortisol Concentration in Plasma (cortisol levels; [2]): 876.5 pg/mL
Cortisol Concentration in Plasma (cortisol levels; 0.5 mg/kg oral, 2 h): 1180.0 pg/mL
Cortisol Concentration in Plasma (cortisol levels; 0.5 mg/kg oral, 4 h): 602.7 pg/mL
Cortisol Concentration in Plasma (cortisol levels; 0.5 mg/kg oral, 6 h): 476.3 pg/mL
Cortisol Concentration in Plasma (cortisol levels; 0.5 mg/kg oral, 12 h): 377.3 pg/mL
Cortisol Concentration in Plasma (cortisol levels; 0.5 mg/kg oral, Pre-dose): 699.3 pg/mL
Cmax ([1]; 0.5 mg/kg, 0.5mpk oral): 152 ng/mL
Tmax ([1]; 0.5 mg/kg, 0.5mpk oral): 2 h
half-life ([1]; 0.5 mg/kg, 0.5mpk oral): 545 min
AUC(0-t) ([1]; 0.5 mg/kg, 0.5mpk oral): 1960 ng·h/mL

CCC(=O)N[C@@H]1CCOc2c(-c3cc4c(cc3F)N(C)C(=O)CC4)cncc21 [Example 8, (R)-N-(8-(7-Fluoro-1-methyl-2-oxo-1,2,3,4-tetrahydroquinolin-6-yl)-3,4-dihydro-2H-pyran[3,2-c]pyridin-4-yl)propanamide]
IC50 (human CYP11B2): 23.1 nM
hCYP11B ½ Selectivity Fold (human CYP11B2): 199 Fold
selectivity (in words) (human CYP11B2; hCYP11B2 versus hCYP11B1, compared with reference Baxdrostat): better selectivity
IC50 (human CYP11B1): 4.6 µM
IC50 (CYP1A2): > 50 µM
IC50 (CYP2C9): > 50 µM
IC50 (CYP2C19): > 50 µM
IC50 (CYP2D6): > 50 µM
IC50 at 10 min (CYP3A): > 50 µM
effect on aldosterone synthesis (in words) (aldosterone synthesis; 0.05 mg/kg oral): significantly inhibited aldosterone synthesis
Aldosterone Concentration in Plasma (aldosterone synthesis; 0.05 mg/kg oral, 0.5 h): 557.64 pg/mL
Aldosterone Concentration in Plasma (aldosterone synthesis; [3]): 350.13 pg/mL
Aldosterone Concentration in Plasma (aldosterone synthesis; 0.05 mg/kg oral, 2 h): 139.86 pg/mL
Aldosterone Concentration in Plasma (aldosterone synthesis; 0.05 mg/kg oral, 4 h): 81.71 pg/mL
Aldosterone Concentration in Plasma (aldosterone synthesis; 0.05 mg/kg oral, 6 h): 84.08 pg/mL
Aldosterone Concentration in Plasma (aldosterone synthesis; 0.05 mg/kg oral, 12 h): 91.38 pg/mL
Aldosterone Concentration in Plasma (aldosterone synthesis; 0.05 mg/kg oral, Pre-dose): 421.96 pg/mL
Cortisol Concentration in Plasma (cortisol levels; 0.05 mg/kg oral, 0.5 h): 1590.4 pg/mL
Cortisol Concentration in Plasma (cortisol levels; [3]): 1335.6 pg/mL
Cortisol Concentration in Plasma (cortisol levels; 0.05 mg/kg oral, 2 h): 1990.5 pg/mL
Cortisol Concentration in Plasma (cortisol levels; 0.05 mg/kg oral, 4 h): 818.4 pg/mL
Cortisol Concentration in Plasma (cortisol levels; 0.05 mg/kg oral, 6 h): 410.8 pg/mL
Cortisol Concentration in Plasma (cortisol levels; 0.05 mg/kg oral, 12 h): 487.5 pg/mL
Cortisol Concentration in Plasma (cortisol levels; 0.05 mg/kg oral, Pre-dose): 831.6 pg/mL
Cmax ([1]; 0.05 mg/kg, 0.05mpk oral): 22.7 ng/mL
Tmax ([1]; 0.05 mg/kg, 0.05mpk oral): 2 h
half-life ([1]; 0.05 mg/kg, 0.05mpk oral): 762 min
AUC(0-t) ([1]; 0.05 mg/kg, 0.05mpk oral): 332 ng·h/mL
Cmax and AUC relative to the reference Baxdrostat ([1]; same dose): three times as high
Cmax and AUC values relative to the compound of Example 2 ([1]; same dose (0.05mpk)): twice as high
